biological target: aldosterone synthase (CYP11B2) (Macaca fascicularis, UniProt A0A2K5UPL9); test: aldosterone synthase inhibition assay; assay type: biochemical, cynomolgus monkey; conditions: cynomolgus adrenal gland mitochondria, 2 μM corticosterone, aldosterone quantified by mass spectrometry
Description: The aldosterone synthase inhibition assay employs cynomolgus adrenal gland mitochondria as the source of aldosterone synthase (CYP11B2). Mitochondria are prepared from frozen cynomolgus monkey adrenal glands according to Method A described in by J. D. McGarry et al. (Biochem. J., 1983, 214, 21-28), with a final resuspension in the AT buffer described in R. Yamaguchi et al. (Cell Death and Differentiation, 2007, 14, 616-624), frozen as aliquots in liquid nitrogen and stored at −80° C. until use.
Assays are performed in 96-well format in a final volume of 60 μL/well, containing 100 mM potassium phosphate, pH 7.4, 1% (v/v) DMSO, and additionally, 2 μM of corticosterone and […] of mitochondrial protein. Reactions are started by the addition of NADPH to 1 mM and allowed to proceed for 60-90 minutes at 37° C. Reactions are terminated by the addition of […]. One hundred microliters are then transferred to a glass filter plate and centrifuged at 570×g for 5 minutes and the filtrate is collected. Reaction product aldosterone is quantified by mass spectrometry. To determine the assay blank value (0% activity), NADPH is omitted from some reactions.
Dose dependent inhibition is quantified by the inclusion of compound at various concentrations. Maximum activity (100%) is defined by reactions containing NADPH, but without compound. Activities at each concentration are expressed as a percentage of the maximum activity (y-axis) and plotted against concentration of compound (x-axis) and the concentration corresponding to 50% activity (IC50) determined using the XLFit curve-fitting program using a 4-parameter logistic model.

Chain of aldosterone synthase (CYP11B2) (A0A2K5UPL9 1-503): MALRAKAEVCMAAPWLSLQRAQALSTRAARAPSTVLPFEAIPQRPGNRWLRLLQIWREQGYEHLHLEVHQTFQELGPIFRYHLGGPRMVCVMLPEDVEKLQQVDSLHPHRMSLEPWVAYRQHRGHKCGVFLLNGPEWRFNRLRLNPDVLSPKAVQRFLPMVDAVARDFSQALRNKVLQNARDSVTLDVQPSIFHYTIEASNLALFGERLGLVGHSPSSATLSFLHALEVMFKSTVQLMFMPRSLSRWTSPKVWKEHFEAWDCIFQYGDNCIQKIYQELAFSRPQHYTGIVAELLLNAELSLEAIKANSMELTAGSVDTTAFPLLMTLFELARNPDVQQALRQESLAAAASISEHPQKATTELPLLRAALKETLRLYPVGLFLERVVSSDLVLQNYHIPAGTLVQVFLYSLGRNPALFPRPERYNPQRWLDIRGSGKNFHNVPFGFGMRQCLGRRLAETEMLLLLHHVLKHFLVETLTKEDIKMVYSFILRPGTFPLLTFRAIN

SMILES | IC50 [µM]
Cc1nn(C)c(C)c1-c1cncc2c1COCC2O (single isomer, unassigned) [Compound 39, 8-(1,3,5-Trimethyl-1H-pyrazol-4-yl)-3,4-dihydro-1H-pyrano[4,3-c]pyridin-4-ol] | 0.437
OC1COCc2c(-c3cnc4[nH]ccc4c3)cncc21 (single isomer, unassigned) [Compound 40, 8-(1H-Pyrrolo[2,3-b]pyridin-5-yl)-3,4-dihydro-1H-pyrano[4,3-c]pyridin-4-ol] | 0.186
Cc1c(-c2cncc3c2COCC3O)cnn1C (single isomer, unassigned) [Compound 41, 8-(1,5-Dimethyl-1H-pyrazol-4-yl)-3,4-dihydro-1H-pyrano[4,3-c]pyridin-4-ol] | 1
Cn1nc(C(F)(F)F)cc1-c1cncc2c1COCC2O (single isomer, unassigned) [Compound 42, 8-(2-Methyl-5-trifluoromethyl-2H-pyrazol-3-yl)-3,4-dihydro-1H-pyrano[4,3-c]pyridin-4-ol] | 0.367
OC1COCc2c(-c3ccc4c(c3)OCCCO4)cncc21 (single isomer, unassigned) [Compound 43, 8-(3,4-Dihydro-2H-benzo[b][1,4]dioxepin-7-yl)-3,4-dihydro-1H-pyrano[4,3-c]pyridin-4-ol] | 0.022
Cn1ncc2ccc(-c3cncc4c3COCC4O)cc21 (single isomer, unassigned) [Compound 44, 8-(1-Methyl-1H-indazol-6-yl)-3,4-dihydro-1H-pyrano[4,3-c]pyridin-4-ol] | 0.0085
OC1COCc2c(-c3ccc4cnccc4c3)cncc21 (single isomer, unassigned) [Compound 45, 8-Isoquinolin-6-yl-3,4-dihydro-1H-pyrano[4,3-c]pyridin-4-ol] | 0.0058
OC1COCc2c(-c3cnn(C4CC4)c3)cncc21 (single isomer, unassigned) [Compound 46, 8-(1-Cyclopropyl-1H-pyrazol-4-yl)-3,4-dihydro-1H-pyrano[4,3-c]pyridin-4-ol] | 0.302
OC1COCc2c(-c3ccc4[nH]ncc4c3)cncc21 (single isomer, unassigned) [Compound 47, 8-(1H-Indazol-5-yl)-3,4-dihydro-1H-pyrano[4,3-c]pyridin-4-ol] | 0.05
OC1COCc2c(-c3ccc4[nH]ccc4c3)cncc21 (single isomer, unassigned) [Compound 48, 8-(1H-Indol-5-yl)-3,4-dihydro-1H-pyrano[4,3-c]pyridin-4-ol] | 0.0174
OC1COCc2c(-c3ccc4ocnc4c3)cncc21 (single isomer, unassigned) [Compound 49, 8-Benzooxazol-5-yl-3,4-dihydro-1H-pyrano[4,3-c]pyridin-4-ol] | 0.0557
Cn1cc2ccc(-c3cncc4c3COCC4O)cc2n1 (single isomer, unassigned) [Compound 50, 8-(2-Methyl-2H-indazol-6-yl)-3,4-dihydro-1H-pyrano[4,3-c]pyridin-4-ol] | 1.2
CN1C(=O)Cc2cc(-c3cncc4c3COCC4O)ccc21 (single isomer, unassigned) [Compound 51, 5-(4-Hydroxy-3,4-dihydro-1H-pyrano[4,3-c]pyridin-8-yl)-1-methyl-1,3-dihydro-indol-2-one] | 0.0242
O=C1Cc2cc(-c3cncc4c3COCC4O)ccc2N1 (single isomer, unassigned) [Compound 52, 5-(4-Hydroxy-3,4-dihydro-1H-pyrano[4,3-c]pyridin-8-yl)-1,3-dihydro-indol-2-one] | 0.0641
OC1COCc2c(-c3ccc4ocnc4c3)cncc21 (single isomer, unassigned) [Compound 53, 8-Benzooxazol-5-yl-3,4-dihydro-1H-pyrano[4,3-c]pyridin-4-ol] | 0.808
CN1C(=O)Cc2cc(-c3cncc4c3COCC4O)ccc21 (single isomer, unassigned) [Compound 54, 5-(4-Hydroxy-3,4-dihydro-1H-pyrano[4,3-c]pyridin-8-yl)-1-methyl-1,3-dihydro-indol-2-one] | 0.149
Cn1nc(F)c2ccc(-c3cncc4c3COCC4O)cc21 (single isomer, unassigned) [Compound 55, 8-(3-Fluoro-1-methyl-1H-indazol-6-yl)-3,4-dihydro-1H-pyrano[4,3-c]pyridin-4-ol] | 0.0076

SMILES | IC50 [µM]
CCC(=O)NC1COCc2c(-c3ccc4ocnc4c3)cncc21 (single isomer, unassigned) [Compound 56, N-(8-Benzooxazol-5-yl-3,4-dihydro-1H-pyrano[4,3-c]pyridin-4-yl)-propionamide] | 0.0858
CCC(=O)NC1COCc2c(-c3ccc4ncn(C)c4c3)cncc21 (single isomer, unassigned) [Compound 57, N-[8-(3-Methyl-3H-benzoimidazol-5-yl)-3,4-dihydro-1H-pyrano[4,3-c]pyridin-4-yl]-propionamide] | 0.219
CCC(=O)NC1COCc2c(-c3ccc4c(c3)CC(=O)N4C)cncc21 (single isomer, unassigned) [Compound 58, N-[8-(1-Methyl-2-oxo-2,3-dihydro-1H-indol-5-yl)-3,4-dihydro-1H-pyrano[4,3-c]pyridin-4-yl]-propionamide] | 0.13
CCC(=O)NC1COCc2c(-c3ccc4c(c3)CC(=O)N4)cncc21 (single isomer, unassigned) [Compound 59, N-[8-(2-Oxo-2,3-dihydro-1H-indol-5-yl)-3,4-dihydro-1H-pyrano[4,3-c]pyridin-4-yl]-propionamide] | 0.179
CCC(=O)NC1COCc2c(-c3ccc4nnn(C)c4c3)cncc21 (single isomer, unassigned) [Compound 60, N-[8-(3-Methyl-3H-benzotriazol-5-yl)-3,4-dihydro-1H-pyrano[4,3-c]pyridin-4-yl]-propionamide] | 0.0755
CCC(=O)NC1COCc2c(-c3ccc4[nH]nc(C)c4c3)cncc21 (single isomer, unassigned) [Compound 61, N-[8-(3-Methyl-1H-indazol-5-yl)-3,4-dihydro-1H-pyrano[4,3-c]pyridin-4-yl]-propionamide] | 0.0362
CCC(=O)NC1COCc2c(-c3ccc4c(C)n[nH]c4c3)cncc21 (single isomer, unassigned) [Compound 62, N-[8-(3-Methyl-1H-indazol-6-yl)-3,4-dihydro-1H-pyrano[4,3-c]pyridin-4-yl]-propionamide] | 0.139
CCS(=O)(=O)NC1COCc2c(-c3ccc4c(c3)CC(=O)N4C)cncc21 (single isomer, unassigned) [Compound 63, Ethanesulfonic acid [8-(1-methyl-2-oxo-2,3-dihydro-1H-indol-5-yl)-3,4-dihydro-1H-pyrano[4,3-c]pyridin-4-yl]-amide] | 0.0852
CCS(=O)(=O)NC1COCc2c(-c3ccc4c(c3)CC(=O)N4)cncc21 (single isomer, unassigned) [Compound 64, Ethanesulfonic acid [8-(2-oxo-2,3-dihydro-1H-indol-5-yl)-3,4-dihydro-1H-pyrano[4,3-c]pyridin-4-yl]-amide] | 0.611
CCS(=O)(=O)NC1COCc2c(-c3ccc4nnn(C)c4c3)cncc21 (single isomer, unassigned) [Compound 65, Ethanesulfonic acid [8-(3-methyl-3H-benzotriazol-5-yl)-3,4-dihydro-1H-pyrano[4,3-c]pyridin-4-yl]-amide] | 0.0361
CCS(=O)(=O)NC1COCc2c(-c3ccc4c(C)n[nH]c4c3)cncc21 (single isomer, unassigned) [Compound 66, Ethanesulfonic acid [8-(3-methyl-1H-indazol-6-yl)-3,4-dihydro-1H-pyrano[4,3-c]pyridin-4-yl]-amide] | 1
CCS(=O)(=O)NC1COCc2c(-c3ccc4ncn(C)c4c3)cncc21 (single isomer, unassigned) [Compound 67, Ethanesulfonic acid [8-(3-methyl-3H-benzoimidazol-5-yl)-3,4-dihydro-1H-pyrano[4,3-c]pyridin-4-yl]-amide] | 0.11
CCS(=O)(=O)NC1COCc2c(-c3ccc4c(F)nn(C)c4c3)cncc21 (single isomer, unassigned) [Compound 68, Ethanesulfonic acid [8-(3-fluoro-1-methyl-1H-indazol-6-yl)-3,4-dihydro-1H-pyrano[4,3-c]pyridin-4-yl]-amide] | 0.0159
CCS(=O)(=O)NC1COCc2c(-c3ccc4[nH]nc(C)c4c3)cncc21 (single isomer, unassigned) [Compound 69, Ethanesulfonic acid [8-(3-methyl-1H-indazol-5-yl)-3,4-dihydro-1H-pyrano[4,3-c]pyridin-4-yl]-amide] | 0.0846
Cc1cc2cnn(C)c2cc1-c1cncc2c1COCC2N (single isomer, unassigned) [Compound 70, 8-(1,5-Dimethyl-1H-indazol-6-yl)-3,4-dihydro-1H-pyrano[4,3-c]pyridin-4-ylamine] | 0.166
Cn1ncc2ccc(-c3cncc4c3COCC4N)cc21 (single isomer, unassigned) [Compound 71, 8-(1-Methyl-1H-indazol-6-yl)-3,4-dihydro-1H-pyrano[4,3-c]pyridin-4-ylamine] | 0.0222
